Like-named read-outs stand apart in the source and are kept apart here.
Columns and labels:
Type in all cases: in vivo
[1] = system: Diamond Back Moth (Plutella xylostella); test: B.1 Diamond Back Moth (Plutella xylostella), cabbage leaf dip; conditions: foliar
Outline: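 Cabbage leaves dipped in compound in 1:1 water:acetone with 0.01% Kinetic HV surfactant, air-dried, then infested with ten 3rd-instar larvae on moist filter paper. Mortality scored at 72 h after treatment; feeding damage rated on a 0-100% scale.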

[2] = system: Boll Weevil (Anthonomus grandis); test: B.3 Boll Weevil (Anthonomus grandis), microtiter plate insect diet; conditions: 120 h, read-out: mortality (egg and larval)
Outline: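 Compounds in 25% DMSO/water sprayed at several concentrations onto insect diet in microtiter wells holding 5–10 A. grandis eggs, two replicates. Plates kept 5 days at about 25±1 °C and 75±5% RH. Egg and larval mortality scored visually.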

[3] = system: Silverleaf Whitefly (Bemisia argentifoli); test: B.5 Silverleaf Whitefly (Bemisia argentifoli), sprayed cotton plants; conditions: 72 h, whitefly adults on sprayed cotton plants, 3 days after treatment, in comparison with untreated controls
Experimental: B.5 Silverleaf Whitefly (Bemisia argentifoli)
The active compounds were formulated by a Tecan liquid handler in 100% cyclohexanone as a 10,000 ppm solution supplied in tubes. The 10,000 ppm solution was serially diluted in 100% cyclohexanone to make interim solutions. These served as stock solutions for which final dilutions were made by the Tecan in 50% acetone:50% water (v/v) into 5 or 10 ml glass vials. A nonionic surfactant (Kinetic®) was included in the solution at a volume of 0.01% (v/v). The vials were then inserted into an automated electrostatic sprayer equipped with an atomizing nozzle for application to plants/insects.
Cotton plants at the cotyledon stage (one plant per pot) were sprayed by an automated electrostatic plant sprayer equipped with an atomizing spray nozzle. The plants were dried in the sprayer fume hood and then removed from the sprayer. Each pot was placed into a plastic cup and about 10 to 12 whitefly adults (approximately 3-5 days old) were introduced. The insects were collected using an aspirator and a nontoxic Tygon® tubing connected to a barrier pipette tip. The tip, containing the collected insects, was then gently inserted into the soil containing the treated plant, allowing insects to crawl out of the tip to reach the foliage for feeding. Cups were covered with a reusable screened lid. Test plants were maintained in a growth room at about 25° C. and about 20-40% relative humidity for 3 days, avoiding direct exposure to fluorescent light (24 hour photoperiod) to prevent trapping of heat inside the cup. Mortality was assessed 3 days after treatment, compared to untreated control plants.

[4] = system: Mediterranean Fruitfly (Ceratitis capitata); test: B.6 Mediterranean Fruitfly (Ceratitis capitata), microtiter plate insect diet; conditions: 120 h, read-out: mortality (egg and larval)
Outline: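 Insect diet with 50-80 C. capitata eggs sprayed with compounds formulated in 75% water/25% DMSO, at different concentrations, two replications. Incubation at about 28±1° C and 80±5% relative humidity for 5 days, then egg and larval mortality assessed visually.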

[5] = system: Tobacco Budworm (Heliothis virescens); test: B.7 Tobacco Budworm (Heliothis virescens) I, microtiter plate insect diet; conditions: 120 h, read-out: mortality (egg and larval)
Outline: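 96-well plates with insect diet and 15-25 H. virescens eggs; compounds in 75% water/25% DMSO sprayed onto diet at several concentrations, two replicates. Plates held at about 28±1° C. and 80±5% relative humidity for 5 days, then egg and larval mortality scored visually.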

[6] = system: Vetch Aphid (Megoura viciae); test: B.8 Vetch Aphid (Megoura viciae), broad bean leaf disks; conditions: foliar, 120 h
Experimental: B.8 Vetch Aphid (Megoura viciae)
For evaluating control of vetch aphid (Megoura viciae) through contact or systemic means the test unit consisted of 24-well-microtiter plates containing broad bean leaf disks.
The compounds were formulated using a solution containing 75% v/v water and 25% v/v DMSO. Different concentrations of formulated compounds were sprayed onto the leaf disks at 2.5 μl, using a custom built micro atomizer, at two replications.
After application, the leaf disks were air-dried and 5-8 adult aphids placed on the leaf disks inside the microtiter plate wells. The aphids were then allowed to suck on the treated leaf disks and incubated at about 23±1° C. and about 50±5% relative humidity for 5 days. Aphid mortality and fecundity was then visually assessed.

[7] = system: Southern Armyworm (Spodoptera eridania), 2nd Instar Larvae; test: B.10 Southern Armyworm (Spodoptera eridania), 2nd Instar Larvae, sprayed lima bean plants; conditions: 96 h
Outline: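 Lima bean plants at 1st true leaf stage sprayed electrostatically with compound in 50% acetone:50% water plus 0.01% nonionic surfactant, then infested with about 10 to 11 2nd instar larvae. Mortality and reduced feeding assessed 4 days after treatment at about 25° C versus untreated plants.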

[8] = system: Yellow Fever Mosquito (Aedes aegypti); test: whole plant or invertebrate; conditions: 48 h, freshly hatched larvae in tap water, 2 days, in comparison with untreated controls, read-out: mortality (larval)
Outline: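 Freshly hatched A. aegypti larvae, 5–15 per well, were held in 200 μl tap water. Compounds formulated in 75:25 water:DMSO were sprayed at various concentrations, 2.5 μl per well by micro-atomizer, in two replicates.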

[9] = system: Orchid thrips (dichromothrips corbetti); test: B.12 Orchid thrips (dichromothrips corbetti), floral-immersion technique; conditions: adult thrips on dipped orchid petals, 72 hours after treatment, in comparison with untreated controls
Outline: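 Whole orchid flower petals were dipped in compound in 1:1 acetone:water with 0.01% v/v Kinetic HV, dried, and enclosed with about 20 adult thrips. They were held under continuous light at about 28° C. Live thrips were counted and percent mortality recorded at 72 hours.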

[10] = system: Orchid thrips (dichromothrips corbetti); test: B.2 Orchid thrips (dichromothrips corbetti), floral-immersion technique; conditions: adult thrips on dipped orchid petals, 72 hours after treatment, in comparison with untreated controls
Experimental: B.2 Orchid thrips (dichromothrips corbetti)
Dichromothrips corbetti adults used for bioassay were obtained from a colony maintained continuously under laboratory conditions. For testing purposes, the test compound is diluted in a 1:1 mixture of acetone:water (vol:vol), plus Kinetic HV at a rate of 0.01% v/v.
Thrips potency of each compound was evaluated by using a floral-immersion technique. All petals of individual, intact orchid flowers were dipped into treatment solution and allowed to dry in Petri dishes. Treated petals were placed into individual resealable plastic along with about 20 adult thrips. All test arenas were held under continuous light and a temperature of about 28° C. for duration of the assay. After 3 days, the numbers of live thrips were counted on each petal. The percent mortality was recorded 72 hours after treatment.

[11] = system: Green Peach Aphid (Myzus persicae); test: B.9 Green Peach Aphid (Myzus persicae), sprayed bell pepper plants; conditions: 120 h, infested bell pepper plants sprayed, after 5 days, in comparison with untreated controls
Outline: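 Bell pepper plants at first true-leaf stage, infested with 30-50 aphids each, were sprayed electrostatically with compound in 50% acetone:water plus 0.01% nonionic surfactant. Held at about 25° C, 24-hr light, 20-40% RH. Mortality versus untreated controls scored after 5 days.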

[12] = system: Cowpea Aphid (aphis craccivora); test: B.4 Cowpea Aphid (aphis craccivora), sprayed potted cowpea plants; conditions: after 72 hours, in comparison with untreated controls
Experimental: B.4 Cowpea Aphid (aphis craccivora)
The active compound is dissolved at the desired concentration in a mixture of 1:1 (vol:vol) distilled water:acetone. Surfactant (Kinetic HV) is added at a rate of 0.01% (vol/vol). The test solution is prepared at the day of use.
Potted cowpea plants were colonized with approximately 50-100 aphids of various stages by manually transferring a leaf tissue cut from infested plant 24 hours before application. Plants were sprayed after the pest population has been recorded. Treated plants are maintained on light carts at about 28° C. Percent mortality was assessed after 72 hours.

[13] = 500 ppm, 3rd instar larvae on dipped cabbage leaves, 72 hours after treatment, in comparison with untreated controls, read-out: mortality
[14] = 800 ppm, sprayed onto insect diet, 5 days, in comparison with untreated controls
[15] = 2500 ppm, adult aphids on sprayed leaf disks, 5 days, in comparison with untreated controls, read-out: mortality
[16] = 300 ppm, larvae on sprayed lima bean plants, 4 days after treatment, in comparison with untreated controls, read-out: mortality

CC(C)c1ccccc1N1CCSC1=N/N=C/c1ccc2c(ccc3c2ncn3-c2ccc(OC(F)(F)F)cc2)c1 (stereo in doubt) [C-53, (E)-3-(2-isopropylphenyl)-N-[(E)-[3-[4-(trifluoromethoxy)phenyl]benzo[e]benzimidazol-7-yl]methyleneamino] thiazolidin-2-imine]
≥ 75%: mortality at 500 ppm [1, 13] | mortality at 800 ppm [2, 14] | mortality at 300 ppm [3] | mortality at 800 ppm [4, 14] | mortality at 800 ppm [5, 14] | mortality at 2500 ppm [6, 15] | mortality at 300 ppm [7, 16] | mortality at 800 ppm [8] | mortality at 500 ppm [9]

Cc1cccc(C)c1NC(=S)N/N=C/c1ccc2c(ccc3c2ncn3-c2ccc(OC(F)(F)F)cc2)c1 [C-1, 1-(2,6-dimethylphenyl)-3-[(E)-[3-[4-(trifluoromethoxy)phenyl]benzo[e]benzimidazol-7-yl]methyleneamino]thiourea]
≥ 75%: mortality at 500 ppm [1, 13] | mortality at 300 ppm [10] | mortality at 800 ppm [2, 14] | mortality at 800 ppm [4, 14] | mortality at 800 ppm [5, 14] | mortality at 800 ppm [11] | mortality at 300 ppm [7, 16] | mortality at 800 ppm [8] | mortality at 500 ppm [9]

Fc1ccc(NC(=S)N/N=C/c2ccc3c(ccc4c3ncn4-c3ccc(OC(F)(F)F)cc3)c2)c(F)c1 [C-5, 1-(2,4-difluorophenyl)-3-[(E)-[3-[4-(trifluoromethoxy)phenyl]benzo[e]benzimidazol-7-yl]methyleneamino] thiourea]
≥ 75%: mortality at 500 ppm [1, 13] | mortality at 800 ppm [2, 14] | mortality at 800 ppm [4, 14] | mortality at 800 ppm [5, 14] | mortality at 2500 ppm [6, 15]

FC(F)(F)Oc1ccc(-c2onc3c2CCc2cc(/C=N/NC(=S)Nc4cc(C(F)(F)F)ccc4Cl)ccc2-3)cc1 [C-18, 1-[2-chloro-5-(trifluoromethyl)phenyl]-3-[(E)-[3-[4-(trifluoromethoxy)phenyl]-4,5-dihydrobenzo[g][2,1]benzoxazol-7-yl]methyleneamino]thiourea]
≥ 75%: mortality at 2500 ppm [6, 15]

Cc1ccccc1NC(=S)N/N=C/c1ccc2c(c1)CCc1c-2nnn1-c1ccc(OC(F)(F)F)cc1 [C-34, 1-(o-tolyl)-3-[[3-[4-(trifluoromethoxy)phenyl]-5,8-dihydro-4H-benzo[e]benzotriazol-7-ylidene]methylimino] thiourea]
≥ 75%: mortality at 500 ppm [12] | mortality at 800 ppm [4, 14]

O=[N+]([O-])c1ccccc1NC(=S)N/N=C/c1ccc2c(c1)CCc1c-2nnn1-c1ccc(OC(F)(F)F)cc1 [C-43, 1-(2-nitrophenyl)-3-[[3-[4-(trifluoromethoxy)phenyl]-5,6-dihydro-4H-benzo[e]benzotriazol-7-ylidene]methylimino]thiourea]
≥ 75%: mortality at 2500 ppm [6, 15] | mortality at 800 ppm [11]

CC(OC(=O)Nc1ccc2c(ccc3c2ncn3-c2ccc(OC(F)(F)F)cc2)c1)c1ccc(Cl)cn1 (stereo not shown) [C-56, 1-(5-chloro-2-pyridyl)ethyl N-[3-[4-(trifluoromethoxy)phenyl]benzo[e]benzimidazol-7-yl]carbamate]
≥ 75%: mortality at 500 ppm ([1]; 72 h) | mortality at 800 ppm [2] | mortality at 800 ppm [4] | mortality at 800 ppm [5] | mortality at 2500 ppm [6] | mortality at 300 ppm [7] | mortality at 800 ppm [8]

Cc1cccc(C)c1NC(=S)N/N=C/c1ccc2c(ccc3c2ncn3-c2ccc(C(F)(F)F)cc2)c1 [C-86, 1-(2,6-dimethylphenyl)-3-[(E)-[3-[4-(trifluoromethyl)phenyl]benzo[e]benzimidazol-7-yl]methyleneamino]thiourea]
≥ 75%: mortality at 500 ppm [1, 13] | mortality at 800 ppm [2, 14] | mortality at 800 ppm [4, 14] | mortality at 800 ppm [5, 14] | mortality at 2500 ppm [6, 15] | mortality at 800 ppm [11] | mortality at 300 ppm [7, 16] | mortality at 800 ppm [8] | mortality at 500 ppm [9]

Cc1ccccc1NC(=S)N(C)/N=C/c1ccc2c(ccc3c2ncn3-c2ccc(OC(F)(F)F)cc2)c1 [C-87, 1-methyl-3-(o-tolyl)-1-[(E)-[3-[4-(trifluoromethoxy)phenyl]benzo[e]benzimidazol-7-yl]methyleneamino]thiourea]
≥ 75%: mortality at 500 ppm [1, 13] | mortality at 800 ppm [2, 14] | mortality at 500 ppm [12] | mortality at 800 ppm [4, 14] | mortality at 800 ppm [8]

Cc1ccc(-n2cnc3c4ccc(/C=N/NC(=S)Nc5c(C)cccc5C)cc4ccc32)cc1 [C-105, 1-(2,6-dimethylphenyl)-3-[(E)-[3-(p-tolyl)benzo[e]benzimidazol-7-yl]methyleneamino]thiourea]
≥ 75%: mortality at 800 ppm [2, 14] | mortality at 800 ppm [4, 14] | mortality at 2500 ppm [6, 15]
